{"source": "patent US20140080885A1", "about": "“METHODS OF TREATING TRAUMATIC BRAIN INJURY” (University of South Florida (A Florida Non-Profit …, priority 2012, published 2014)", "test_system": "CA3 layer of the hippocampus in rats 24 hrs following TBI", "assay": "Hippocampal damage after TBI (lateral fluid percussion injury), Fluoro-Jade staining of degenerating neurons", "assay_type": "in vivo, Male Sprague-Dawley rats", "settings": "vs vehicle (2.5% DMSO in saline), p<0.0293 ANOVA with Dunnett's post-hoc test", "protocol": "FIG. 1 illustrates that Carvedilol treatment reduces hippocampal damage following TBI. Representative images of the CA3 layer of the hippocampus in rats 24 hrs following TBI, vehicle treated (A) and carvedilol treated (B) at 1 and 12 hrs following the insult. […] Images were taken at 4× magnification. Dosing was subcutaneous and the vehicle is 2.5% DMSO in saline.\nAll animal procedures were conducted in accordance with the NIH Guide for the Care and Use of Laboratory Animals following a protocol approved by the Institutional Animal Care and Use Committee at the University of South Florida. Male Sprague-Dawley rats (Harlan, Indianapolis, Ind.) weighing 250 to 300 g were housed in a climate-controlled room with water and laboratory chow available ad libitum. A total of 33 animals were used in this study.\nInduction of Lateral Fluid Percussion Injury (LFPI) Animals were anesthetized using a mixture of ketamine (90 mg/kg)/xylazine (10 mg/kg) (IP). […] Impact pressures were measured using a transducer attached to the point of impact on the fluid percussive device. […]\nAll quantitation was performed using the NIH Image J software. […] Photomicrographs captured at 200× magnification with an Olympus DP70 camera were used for quantification. […] The channels of the RGB images were split and the green channel was used for quantitation of the FJ staining images. […]", "data": [{"smiles": "COc1ccccc1OCCNCC(O)COc1cccc2[nH]c3ccccc3c12", "note": "(racemic) [Carvedilol, (±)-[3-(9H-carbazol-4-yloxy)-2-hydroxypropyl][2-(2-methoxyphenoxy)ethyl]amine]", "values": [{"measurement": "hippocampal damage following TBI", "setting": "subcutaneous dosing at 1 and 12 hrs following the insult", "value": "significantly reduces hippocampal damage"}, {"measurement": "hippocampal damage following TBI", "setting": "subcutaneous dosing at 6 and 12 (hrs) following the insult", "value": "significantly reduces hippocampal damage"}]}]}
